The values below come from patent publication US8466162B2, “5-alkynyl-pyridines” (Boehringer Ingelheim International GmbH, priority 2011, dated 2013).

The target in one assay is T1, PI3Kalpha (Homo sapiens, UniProt P42336).
T1 construct: His (N); made in house; host or cells: SF9 insect cells (baculovirus co-infection)
Kind of assay: Inhibition of PI3Kalpha-induced PIP-2 phosphorylation (filter-binding assay, 33P-ATP). In kind it is biochemical. The settings on record: PI3 Kinase alpha (p85alpha/His-p110alpha), 1 μM ATP; read-out: IC50 PI3Kα.

The next assay relates to H460 cells. Briefly: alamarBlue H460 cell assay (antiproliferative/cytotoxicity). In kind it is cell-based. The settings on record: NCI-H460; H460 human lung carcinoma cells. The essentials: (§1)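 EC50 values reflect antiproliferative or cytotoxic effect, taken from fluorometric alamarBlue signal (excitation 530-560 nm, emission 590 nm) corrected for a medium blank. Exposure lasted 5-6 days at concentrations up to 10 μM final.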
In general terms: Alamar Blue is a resazurin reagent that responds to reducing activity.

A further assay concerns MB453 cells. Kind of assay: alamarBlue MB453 cell assay (antiproliferative/cytotoxicity). In kind it is cell-based. Particulars: Homo sapiens; MDA MB 453 breast cancer cell line. An excerpt:
(§2) The H460, MB453, U87, MCF7 and BT474 alamarBlue cell assays provide EC50 values indicative of the antiproliferative or cytotoxic effects of the compounds to respectively the H460 (human non small cell line cancer), MB-453 (breast cancer cell line), U87 (glioblastoma cell line), MCF7 (breast cancer cell line) and BT474 (breast cancer cell line). As known in the field, antiproliferative or cytotoxic effect against this cell lines would be expected to be indicative of activity in treating lung, breast and brain cancers. See R. Marone R et al. Biochim. Biophys. Acta. 2008 January; 1784(1):159-85. S. Yaguchi et al., J. Natl. Cancer Inst. 2006 Apr. 19; 98(8):545-56.
(§3) Method Type: Antiproliferative/Cytotoxicity
(§4) alamarBlue® is designed to provide a rapid and sensitive measure of cell proliferation and cytotoxicity in various human and animal cell lines. The assay is based on the reduction of alamarBlue in the reducing environment of living (metabolically active) cells. In the presence of added cytotoxic or antiproliferative compounds, the innate metabolic activity ceases.
(§5) AlamarBlue is soluble and stable in culture medium. Measurements are made fluorometrically by exciting at 530-560 nm and measuring emission at 590 nm. In reporting percent alamarBlue reduction by monitoring fluorescence, data are expressed as fluorescence emission intensity units as a function of time of incubation.
(§6) 3. Equipment • 96-well plates, flat bottom (Falcon, Cat. No.: 353072) • 96-well plates, U-shaped (Costar, Cat. No.: 3799) • CO2-Incubator • Microplate Reader, Spectramax Plus, Molecular Devices 4. Typical Procedure • Day 0: Seed 3000 BT-474 cells (IMDM/5% FCS, 1% NEAA, 1% Sodiumpyruvat) in 150 μl medium into a 96-well plate, flat bottom (include mediumblank). Incubate plates at 37° C. in a CO2 incubator overnight. • Day 1: Dilute compounds to a concentration 40 μM ->1:3 in medium, 10 dilution steps, in 96-well plates. • Add 50 μl per well of each dilution (total volume per well 200 μl; final conc. of cpds: 10 μM ->1:3). If required, test further dilutions. • All concentrations are tested in duplicates. • Controls: Cells w/o cpd. (+50 μl medium/DMSO). • Cells are incubated with compounds for 5-6 days. • Day 6 or 7: Add 25 μl of alamarBlue solution to each well and incubate for 8 hours at 37° C. Measure fluorescence by exciting at 530-560 nm and measuring emission at 590 nm 5. Evaluation • Subtract average value for medium blank from sample readings • Calculate EC50 using GraphPad Prism (Fifty)

The next assay relates to U87 cells. Briefly: alamarBlue U87 cell assay (antiproliferative/cytotoxicity). In kind it is cell-based. The settings on record: U-87MG human glioblastoma cells.
Source text: as §2, §3, §4, §5, §6

The test system of another assay is MCF7 cells. Briefly: alamarBlue MCF7 cell assay (antiproliferative/cytotoxicity). In kind it is cell-based. The settings on record: MCF7 human breast cancer cell line. The essentials:
as §1

A further assay deals with BT474 cells. Kind of assay: alamarBlue BT474 cell assay (antiproliferative/cytotoxicity). In kind it is cell-based. The settings on record: BT-474 human breast cancer cell line, 5-6 days incubation. The essentials: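 Cells treated 5–6 days at 37 °C with compound, 10 μM top final concentration, 1:3 steps over 10 dilutions, in duplicate. alamarBlue then added for 8 h; fluorescence read at ex 530–560/em 590 nm, medium blank subtracted, EC50 fitted.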

T1 sequence (P27986 whole entry): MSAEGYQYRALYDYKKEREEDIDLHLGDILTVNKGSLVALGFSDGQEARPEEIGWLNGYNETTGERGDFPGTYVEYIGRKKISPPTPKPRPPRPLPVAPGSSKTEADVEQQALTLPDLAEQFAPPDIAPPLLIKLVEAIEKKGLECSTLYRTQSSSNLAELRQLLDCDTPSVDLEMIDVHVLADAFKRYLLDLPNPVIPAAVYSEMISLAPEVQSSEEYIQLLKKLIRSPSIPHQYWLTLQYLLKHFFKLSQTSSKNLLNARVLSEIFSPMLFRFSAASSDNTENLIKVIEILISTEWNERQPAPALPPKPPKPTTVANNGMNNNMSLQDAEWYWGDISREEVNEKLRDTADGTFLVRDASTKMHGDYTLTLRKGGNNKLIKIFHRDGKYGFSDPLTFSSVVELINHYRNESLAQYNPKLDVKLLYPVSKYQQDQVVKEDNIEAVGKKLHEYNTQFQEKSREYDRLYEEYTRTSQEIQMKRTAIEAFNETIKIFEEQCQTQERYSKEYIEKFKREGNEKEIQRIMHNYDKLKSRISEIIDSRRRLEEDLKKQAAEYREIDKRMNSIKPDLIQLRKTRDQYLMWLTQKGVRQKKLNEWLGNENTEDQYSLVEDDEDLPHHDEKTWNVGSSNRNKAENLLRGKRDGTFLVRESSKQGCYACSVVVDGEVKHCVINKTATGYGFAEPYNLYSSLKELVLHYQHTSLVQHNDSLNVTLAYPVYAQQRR
T1 sequence (P42336 whole entry): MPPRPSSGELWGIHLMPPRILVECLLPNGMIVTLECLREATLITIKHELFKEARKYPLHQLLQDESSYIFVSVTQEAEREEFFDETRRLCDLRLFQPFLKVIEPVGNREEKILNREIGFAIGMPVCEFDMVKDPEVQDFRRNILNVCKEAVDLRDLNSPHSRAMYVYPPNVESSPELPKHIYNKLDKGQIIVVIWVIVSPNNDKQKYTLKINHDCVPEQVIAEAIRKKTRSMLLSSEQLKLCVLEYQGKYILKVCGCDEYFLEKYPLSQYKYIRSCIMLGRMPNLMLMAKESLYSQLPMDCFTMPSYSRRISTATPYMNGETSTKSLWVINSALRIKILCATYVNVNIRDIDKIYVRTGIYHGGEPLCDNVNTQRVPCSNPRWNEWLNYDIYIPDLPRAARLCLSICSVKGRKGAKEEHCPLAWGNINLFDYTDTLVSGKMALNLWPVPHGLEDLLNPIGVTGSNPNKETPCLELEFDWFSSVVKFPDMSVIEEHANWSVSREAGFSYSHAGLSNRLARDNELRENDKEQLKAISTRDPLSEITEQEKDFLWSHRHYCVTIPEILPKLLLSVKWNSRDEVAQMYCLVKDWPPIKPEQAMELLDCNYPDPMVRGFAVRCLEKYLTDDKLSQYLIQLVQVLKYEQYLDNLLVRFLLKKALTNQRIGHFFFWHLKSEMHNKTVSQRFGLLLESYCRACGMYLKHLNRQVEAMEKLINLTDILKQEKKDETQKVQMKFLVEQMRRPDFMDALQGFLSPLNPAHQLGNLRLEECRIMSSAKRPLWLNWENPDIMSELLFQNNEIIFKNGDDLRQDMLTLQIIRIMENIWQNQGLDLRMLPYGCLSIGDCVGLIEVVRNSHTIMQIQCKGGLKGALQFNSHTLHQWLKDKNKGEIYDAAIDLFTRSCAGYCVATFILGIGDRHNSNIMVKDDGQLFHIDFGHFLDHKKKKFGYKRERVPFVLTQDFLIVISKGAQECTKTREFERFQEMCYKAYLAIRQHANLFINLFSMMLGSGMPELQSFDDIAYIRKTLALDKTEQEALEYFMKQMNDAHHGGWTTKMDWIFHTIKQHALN

Usually IC50 stands for the concentration needed to halve the response being measured. A word on the EC50: it is the midpoint of the concentration-response curve. For the compound `CCc1cc(-c2ncnc(CC)c2C#Cc2cnc(C)c(NS(C)(=O)=O)c2)ccn1` [Example 5, N-{5-[4-Ethyl-6-(2-ethyl-pyridin-4-yl)-pyrimidin-5-ylethynyl]-2-methyl-pyridin-3-yl}-methanesulfonamide], the 50% inhibitory concentration (IC50) on PI3Kalpha came out at 0.63 nM. Moreover, the EC50 in the assay with H460 cells was 159 nM; with MB453 cells it was 54 nM; with U87 cells, 220 nM; with MCF7 cells, 34 nM; with BT474 cells, 117 nM.
As to `CCc1ncnc(-c2cc(C)nc(C)c2)c1C#Cc1cnc(C)c(NS(C)(=O)=O)c1` [Example 6, N-{5-[4-(2,6-Dimethyl-pyridin-4-yl)-6-ethyl-pyrimidin-5-ylethynyl]-2-methyl-pyridin-3-yl}-methanesulfonamide], the 50% inhibitory concentration (IC50) at PI3Kalpha came to 1 nM. For the same compound, the concentration for a half-maximal effect (EC50) with H460 cells came out at 169 nM; in the assay on MB453 cells it was 49 nM; in the assay on U87 cells, 243 nM; with MCF7 cells, 28 nM; with BT474 cells, 104 nM.
As to `CCc1ncnc(-c2cccc(C(F)(F)F)c2OC)c1C#Cc1cnc(C)c(NS(C)(=O)=O)c1` [Example 7, N-{5-[4-Ethyl-6-(2-methoxy-3-trifluoromethyl-phenyl)-pyrimidin-5-ylethynyl]-2-methyl-pyridin-3-yl}-methanesulfonamide], on PI3Kalpha, the half-inhibitory concentration (IC50) is 2 nM. In addition, the EC50 with H460 cells came out at 358 nM; in the assay with MB453 cells, 381 nM; in the assay with U87 cells, 475 nM; in the assay on MCF7 cells it was 223 nM; with BT474 cells it was 543 nM.
Turning to `CCc1ncnc(-c2ccc(OC)c(F)c2)c1C#Cc1cnc(C)c(NS(C)(=O)=O)c1` [Example 8, N-{5-[4-Ethyl-6-(3-fluoro-4-methoxy-phenyl)-pyrimidin-5-ylethynyl]-2-methyl-pyridin-3-yl}-methanesulfonamide], the half-maximal inhibitory concentration (IC50) at PI3Kalpha stood at 1 nM. The EC50 in the assay on H460 cells came to 241 nM; in the assay on MB453 cells, 184 nM; in the assay on U87 cells, 910 nM; in the assay on MCF7 cells, 99 nM; with BT474 cells it was 279 nM.
As to `CCc1ncnc(-c2ccc(C)nc2)c1C#Cc1cnc(C)c(NS(=O)(=O)c2ccc(F)cc2F)c1` [Example 9, N-{5-[4-Ethyl-6-(6-methyl-pyridin-3-yl)-pyrimidin-5-ylethynyl]-2-methyl-pyridin-3-yl}-2,4-difluoro-benzenesulfonamide], the IC50 at PI3Kalpha was 0.54 nM. In addition, the EC50 in the assay on H460 cells came to 49 nM; with MB453 cells, 36 nM; with U87 cells it was 248 nM; in the assay on MCF7 cells it was 7 nM; with BT474 cells, 24 nM.
Consider `CCc1ncnc(-c2ccnc(C)c2)c1C#Cc1cnc(C)c(NS(=O)(=O)c2ccc(F)cc2F)c1` [Example 10, N-{5-[4-Ethyl-6-(2-methyl-pyridin-4-yl)-pyrimidin-5-ylethynyl]-2-methyl-pyridin-3-yl}-2,4-difluoro-benzenesulfonamide], for which the IC50 at PI3Kalpha is 0.56 nM. In addition, the EC50 in the assay with H460 cells came to 92 nM; in the assay on MB453 cells, 69 nM; in the assay with U87 cells, 326 nM; in the assay on MCF7 cells, 29 nM; in the assay on BT474 cells, 75 nM.
As to `CCOc1ccc(-c2ncnc(CC)c2C#Cc2cnc(C)c(NS(C)(=O)=O)c2)cc1OCC` [Example 23, N-{5-[4-(3,4-Diethoxy-phenyl)-6-ethyl-pyrimidin-5-ylethynyl]-2-methyl-pyridin-3-yl}-methanesulfonamide], on PI3Kalpha, the IC50 amounted to 0.58 nM. Moreover, the EC50 in the assay on H460 cells was found to be 109 nM; in the assay with MB453 cells, 123 nM; in the assay with U87 cells, 470 nM; in the assay on MCF7 cells, 45 nM; in the assay on BT474 cells, 119 nM.
On to `CCc1ncnc(-c2ccc(C(=O)N3CCN(C)CC3)c(F)c2)c1C#Cc1cnc(C)c(NS(=O)(=O)c2ccc(F)cc2F)c1` [Example 27, N-(5-{4-Ethyl-6-[3-fluoro-4-(4-methyl-piperazine-1-carbonyl)-phenyl]-pyrimidin-5-ylethynyl}-2-methyl-pyridin-3-yl)-2,4-difluoro-benzenesulfonamide], for which the IC50 on PI3Kalpha amounted to 0.5 nM. Besides, the half-maximal effective concentration (EC50) in the assay on H460 cells turned out to be 192 nM; with MB453 cells, 33 nM; in the assay with U87 cells, 75 nM; with MCF7 cells, 11 nM; in the assay with BT474 cells, 51 nM.
In the case of `CCc1nc(N)nc(-c2ccc(C(=O)N3CCN(C)CC3)c(F)c2)c1C#Cc1cnc(C)c(NS(=O)(=O)c2ccc(F)cc2F)c1` [Example 32, N-(5-{2-Amino-4-ethyl-6-[3-fluoro-4-(4-methyl-piperazine-1-carbonyl)-phenyl]-pyrimidin-5-ylethynyl}-2-methyl-pyridin-3-yl)-2,4-difluoro-benzenesulfonamide], at PI3Kalpha, the IC50 is 0.28 nM. In addition, the EC50 in the assay on H460 cells worked out at 500 nM; with MB453 cells, 49 nM; with U87 cells, 259 nM; in the assay with MCF7 cells, 23 nM; in the assay with BT474 cells, 127 nM.
As for `CCc1nc(N)nc(-c2ccnc(C)c2)c1C#Cc1cnc(C)c(NS(=O)(=O)c2ccc(F)cc2F)c1` [Example 33, N-{5-[2-Amino-4-ethyl-6-(2-methyl-pyridin-4-yl)-pyrimidin-5-ylethynyl]-2-methyl-pyridin-3-yl}-2,4-difluoro-benzenesulfonamide], at PI3Kalpha, the IC50 was found to be 0.45 nM. The 50% effective concentration (EC50) in the assay on H460 cells stood at 70 nM; in the assay with MB453 cells, 45 nM; in the assay on U87 cells it was 224 nM; in the assay with MCF7 cells, 9 nM; with BT474 cells it was 33 nM.
For `CCc1nc(N)nc(-c2ccc(C)nc2)c1C#Cc1cnc(C)c(NS(=O)(=O)c2ccc(F)cc2F)c1` [Example 36, N-{5-[2-Amino-4-ethyl-6-(6-methyl-pyridin-3-yl)-pyrimidin-5-ylethynyl]-2-methyl-pyridin-3-yl}-2,4-difluoro-benzenesulfonamide], the IC50 on PI3Kalpha worked out at 0.56 nM. Also, the EC50 in the assay on H460 cells stood at 30 nM; in the assay with MB453 cells, 37 nM; in the assay on U87 cells, 127 nM; with MCF7 cells, 10 nM; with BT474 cells it was 41 nM.
As to `Cc1ncc(C#Cc2c(C)ncnc2-c2ccc(C(=O)N3CCN(C)CC3)c(F)c2)cc1NS(C)(=O)=O` [Example 37, N-(5-{4-[3-Fluoro-4-(4-methyl-piperazine-1-carbonyl)-phenyl]-6-methyl-pyrimidin-5-ylethynyl}-2-methyl-pyridin-3-yl)-methanesulfonamide], at PI3Kalpha, the concentration for half-maximal inhibition (IC50) was 5 nM. Besides, the 50% effective concentration (EC50) in the assay with H460 cells turned out to be 25000 nM; with MB453 cells, 685 nM; in the assay with U87 cells, 3040 nM; in the assay on MCF7 cells, 4000 nM; with BT474 cells it was 1020 nM.
`Cc1cc(-c2ncnc(C)c2C#Cc2cnc(C)c(NS(C)(=O)=O)c2)ccn1` [Example 38, N-{2-Methyl-5-[4-methyl-6-(2-methyl-pyridin-4-yl)-pyrimidin-5-ylethynyl]-pyridin-3-yl}-methanesulfonamide]: the IC50 on PI3Kalpha was 2 nM. Besides, the concentration for a half-maximal effect (EC50) with H460 cells was 2600 nM; in the assay on MB453 cells, 317 nM; in the assay on U87 cells, 893 nM; with MCF7 cells, 186 nM; in the assay with BT474 cells, 344 nM.
On to `Cc1ncc(C#Cc2c(C)ncnc2-c2cccc(C#N)c2)cc1NS(C)(=O)=O` [Example 39, N-{5-[4-(3-Cyano-phenyl)-6-methyl-pyrimidin-5-ylethynyl]-2-methyl-pyridin-3-yl}-methanesulfonamide], for which the IC50 on PI3Kalpha was 4 nM. In addition, the half-maximal effective concentration (EC50) in the assay with H460 cells was found to be 1550 nM; with MB453 cells, 524 nM; with U87 cells, 955 nM; with MCF7 cells, 213 nM; in the assay on BT474 cells it was 837 nM.
Take `Cc1ccc(-c2ncnc(C)c2C#Cc2cnc(C)c(NS(C)(=O)=O)c2)cn1` [Example 40, N-{2-Methyl-5-[4-methyl-6-(6-methyl-pyridin-3-yl)-pyrimidin-5-ylethynyl]-pyridin-3-yl}-methanesulfonamide]: the IC50 at PI3Kalpha is 3 nM. Further, the EC50 came out at 1960 nM in the assay on H460 cells; 411 nM in the assay on MB453 cells; 1170 nM with U87 cells; 188 nM in the assay with MCF7 cells; 597 nM in the assay on BT474 cells.
